In US6756359B2, “C12 modified erythromycin macrolides and ketolides having antibacterial activity” (Chiron Corporation, priority 2001, dated 2004):
Values after ≈ are worked out from the molar mass of the structure shown.

Key:
Experiment in all cases: Antibacterial activity in vitro, MIC by broth microdilution
[1] = system: S. pneumoniae Stpn_Erm 6849; format: cell-based, Streptococcus pneumoniae; conditions: Table 3, Strain ID H: S. pneumoniae Stpn_Erm 6849; unit assumed
Summary of the method: (§1)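 Test agents were dissolved in methanol and serially diluted two-fold in cation-adjusted Mueller-Hinton broth, which for S. pneumoniae carried 2-5% lysed horse blood. Plates were inoculated to 3×10^5–7×10^5 CFU/mL and held at 35° C. for 18-24 hours, with CO2 at 5-10% for pneumococci.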

[2] = system: S. pneumoniae Stpn_280-962 Pen S; format: cell-based, Streptococcus pneumoniae; conditions: Table 3, Strain ID G: S. pneumoniae Stpn_280-962 Pen S
Summary of the method: as §1

[3] = system: S. pneumoniae Stpn_49619; format: cell-based, Streptococcus pneumoniae; conditions: Table 3, Strain ID E: S. pneumoniae Stpn_49619
Summary of the method: as §1

[4] = system: S. pneumoniae Stpn_Erm S 4297; format: cell-based, Streptococcus pneumoniae; conditions: Table 3, Strain ID I: S. pneumoniae Stpn_Erm S 4297
Summary of the method: as §1

[5] = system: S. pneumoniae Stpn_297-749 Pen R; format: cell-based, Streptococcus pneumoniae; conditions: Table 3, Strain ID F: S. pneumoniae Stpn_297-749 Pen R
Summary of the method: as §1

[6] = system: S. pneumoniae Stpn_Mef 5654; format: cell-based, Streptococcus pneumoniae; conditions: Table 3, Strain ID J: S. pneumoniae Stpn_Mef 5654; unit assumed
Summary of the method: as §1

[7] = system: S. pneumoniae Stpn_Mef S 3427; format: cell-based, Streptococcus pneumoniae; conditions: Table 3, Strain ID K: S. pneumoniae Stpn_Mef S 3427
Summary of the method: as §1

[8] = system: H. influenzae Hain_49247; format: cell-based, Haemophilus influenzae; conditions: Table 3, Strain ID L: H. influenzae Hain_49247; unit assumed
Summary of the method: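 Visible-growth inhibition defined the MIC, obtained by NCCLS broth microdilution at 35° C. over 18-24 hours with a final inoculum of 3×10^5–7×10^5 CFU/mL.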

[9] = system: S. epidermidis Step_14990; format: cell-based; conditions: Table 3, Strain ID A: S. epidermidis Step_14990; unit assumed
Summary of the method: as §1

[10] = system: E. faecalis Enfa_29212; format: cell-based; conditions: Table 3, Strain ID C: E. faecalis Enfa_29212
Summary of the method: as §1

[11] = system: E. coli Esco_25922; format: cell-based; conditions: Table 3, Strain ID M: E. coli Esco_25922; unit assumed
Summary of the method: as §1

[12] = system: S. pyogenes Stpy_8668; format: cell-based; conditions: Table 3, Strain ID D: S. pyogenes Stpy_8668
Summary of the method: as §1

[13] = system: S. epidermidis Step_f50654 Pen S; format: cell-based; conditions: Table 3, Strain ID B: S. epidermidis Step_f50654 Pen S; unit assumed
Summary of the method: as §1

MIC [1]	MIC [2]	MIC [3]	MIC ([4]; unit assumed)	MIC [5]	MIC [6]	MIC ([7]; unit assumed)	MIC [8]	MIC [9]	MIC ([10]; unit assumed)	MIC [11]	MIC [12]	MIC [13]	MIC ([3]; unit assumed)	MIC ([12]; unit assumed)	MIC [4]	MIC [7]	MIC [10]	SMILES
> 50 µg/mL	≦0.05	≦0.05	> 50 µg/mL	≦0.05	6.25 µg/mL (≈ 8.36 µM)	1.56 µg/mL (≈ 2.09 µM)	12.5 µg/mL (≈ 16.7 µM)	0.2 µg/mL (≈ 0.267 µM)	0.78 µg/mL (≈ 1.04 µM)	50 µg/mL (≈ 66.8 µM)	≦0.05	0.2 µg/mL (≈ 0.267 µM)	–	–	–	–	–	CC[C@H]1OC(=O)[C@H](C)[C@@H](O[C@H]2C[C@@](C)(OC)[C@@H](O)[C@H](C)O2)[C@H](C)[C@@H](O[C@@H]2O[C@H](C)C[C@H](N(C)C)[C@H]2O)[C@](C)(OC)C[C@@H](C)C(=O)[C@H](C)[C@@H](O)[C@]1(C)O [Clar., clarithromycin, reference compound]
> 50 µg/mL	≦0.05	–	> 50 µg/mL	≦0.05	0.2 µg/mL (≈ 0.334 µM)	0.1 µg/mL (≈ 0.167 µM)	25 µg/mL (≈ 41.8 µM)	3.13 µg/mL (≈ 5.23 µM)	1.56 µg/mL (≈ 2.61 µM)	> 50 µg/mL	–	3.13 µg/mL (≈ 5.23 µM)	0.2 µg/mL (≈ 0.334 µM)	0.1 µg/mL (≈ 0.167 µM)	–	–	–	CC[C@H]1OC(=O)[C@H](C)C(=O)[C@H](C)[C@@H](O[C@@H]2O[C@H](C)C[C@H](N(C)C)[C@H]2O)[C@@](C)(OC)C[C@@H](C)C(=O)[C@H](C)[C@H]2NC(=O)O[C@@H]21 [Compound 4266]
0.2 µg/mL (≈ 0.251 µM)	≦0.5	≦0.5	–	≦0.5	0.2 µg/mL (≈ 0.251 µM)	–	3.13 µg/mL (≈ 3.93 µM)	0.1 µg/mL (≈ 0.125 µM)	–	50 µg/mL (≈ 62.7 µM)	≦0.5	0.2 µg/mL (≈ 0.251 µM)	–	–	≦0.05	≦0.5	≦0.05	CC[C@H]1OC(=O)[C@H](C)C(=O)[C@H](C)[C@@H](O[C@@H]2O[C@H](C)C[C@H](N(C)C)[C@H]2O)[C@@](C)(OC)C[C@@H](C)C(=O)[C@H](C)[C@@H]2[C@@H]1OC(=O)N2CCCCn1cnc(-c2ccccc2)c1 [Compound 4710]
6.25 µg/mL (≈ 7.99 µM)	≦0.5	≦0.5	0.2 µg/mL (≈ 0.256 µM)	≦0.5	0.1 µg/mL (≈ 0.128 µM)	–	1.56 µg/mL (≈ 1.99 µM)	0.1 µg/mL (≈ 0.128 µM)	–	50 µg/mL (≈ 63.9 µM)	≦0.5	0.1 µg/mL (≈ 0.128 µM)	–	–	–	≦0.5	≦0.05	CC[C@H]1OC(=O)[C@H](C)C(=O)[C@H](C)[C@@H](O[C@@H]2O[C@H](C)C[C@H](N(C)C)[C@H]2O)[C@@](C)(OC)C[C@@H](C)C(=O)[C@H](C)[C@@H]2[C@@H]1OC(=O)N2CCCCc1ccnc2ccccc12 [Compound 4711]
0.78 µg/mL (≈ 1.01 µM)	≦0.5	≦0.5	0.1 µg/mL (≈ 0.13 µM)	≦0.5	3.13 µg/mL (≈ 4.05 µM)	0.4 µg/mL (≈ 0.518 µM)	3.13 µg/mL (≈ 4.05 µM)	0.4 µg/mL (≈ 0.518 µM)	0.1 µg/mL (≈ 0.13 µM)	50 µg/mL (≈ 64.8 µM)	≦0.5	0.4 µg/mL (≈ 0.518 µM)	–	–	–	–	–	CC[C@H]1OC(=O)[C@H](C)C(=O)[C@H](C)[C@@H](O[C@@H]2O[C@H](C)C[C@H](N(C)C)[C@H]2O)[C@@](C)(OC)C[C@@H](C)C(=O)[C@H](C)[C@@H]2[C@@H]1OC(=O)N2CCCCn1cnc2ncccc21 [Compound 4713]
